From the supplement of paper PMC10733146

Experiments:
Test in all cases: viability relative to DMSO control (fraction); higher = less drug effect (more viable cells)
Conditions in all cases: 48 h
[1] = tested on: primary ALL patient cells (S048)
Summary of the method: (§1)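 Cells were incubated for 48 h at 37 °C and 5% CO2 in RPMI-1640 with penicillin/streptomycin, L-glutamine and human serum, at 4 × 10^4 cells per well in 384-well plates with compounds pre-plated at five concentrations, one well each. These were primary mononuclear tumour cells, fresh or cryopreserved, Ficoll-isolated from blood or bone marrow or obtained from processed lymph node. Viability values are CellTiter-Glo luminescence relative to the median of 16 inner DMSO wells.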

[2] = tested on: primary ALL patient cells (S088)
Summary of the method: as §1

[3] = tested on: primary AML patient cells (S006)
Summary of the method: as §1

[4] = tested on: primary AML patient cells (S007)
Summary of the method: as §1

[5] = tested on: primary AML patient cells (S055)
Summary of the method: as §1

[6] = tested on: primary AML patient cells (S056)
Summary of the method: as §1

[7] = tested on: primary AML patient cells (S060)
Summary of the method: as §1

[8] = tested on: primary AML patient cells (S071)
Summary of the method: as §1

[9] = tested on: primary AML patient cells (S072)
Summary of the method: as §1

[10] = tested on: primary AML patient cells (S079)
Summary of the method: as §1

[11] = tested on: primary AML patient cells (S089)
Summary of the method: as §1

[12] = tested on: primary CLL patient cells (S031)
Summary of the method: as §1

[13] = tested on: primary CLL patient cells (S043)
Summary of the method: as §1

[14] = tested on: primary DLBCL patient cells (S082)
Summary of the method: as §1

[15] = tested on: primary MCL patient cells (S063)
Summary of the method: as §1

CC(C)c1cc(C(=O)N2Cc3ccc(CN4CCN(C)CC4)cc3C2)c(O)cc1O [Onalespib]
viability ([1]; 0.0032 µM): 0.877 | viability ([1]; 0.016 µM): 0.847 | viability ([1]; 0.08 µM): 0.477 | viability ([1]; 0.4 µM): 0.574 | viability ([1]; 2 µM): 0.432 | viability ([2]; 0.0032 µM): 0.659 | viability ([2]; 0.016 µM): 0.582 | viability ([2]; 0.08 µM): 0.255 | viability ([2]; 0.4 µM): 0.273 | viability ([2]; 2 µM): 0.253 | viability ([3]; 0.0032 µM): 0.788 | viability ([3]; 0.016 µM): 0.312 | viability ([3]; 0.08 µM): 0.124 | viability ([3]; 0.4 µM): 0.213 | viability ([3]; 2 µM): 0.239 | viability ([4]; 0.0032 µM): 0.566 | viability ([4]; 0.016 µM): 0.114 | viability ([4]; 0.08 µM): 0.0773 | viability ([4]; 0.4 µM): 0.102 | viability ([4]; 2 µM): 0.111 | viability ([5]; 0.0032 µM): 0.96 | viability ([5]; 0.016 µM): 1.01 | viability ([5]; 0.08 µM): 0.566 | viability ([5]; 0.4 µM): 0.434 | viability ([5]; 2 µM): 0.389 | viability ([6]; 0.0032 µM): 0.743 | viability ([6]; 0.016 µM): 0.29 | viability ([6]; 0.08 µM): 0.142 | viability ([6]; 0.4 µM): 0.164 | viability ([6]; 2 µM): 0.174 | viability ([7]; 0.0032 µM): 0.967 | viability ([7]; 0.016 µM): 1.15 | viability ([7]; 0.08 µM): 0.61 | viability ([7]; 0.4 µM): 0.169 | viability ([7]; 2 µM): 0.109 | viability ([8]; 0.0032 µM): 0.847 | viability ([8]; 0.016 µM): 0.379 | viability ([8]; 0.08 µM): 0.149 | viability ([8]; 0.4 µM): 0.169 | viability ([8]; 2 µM): 0.168 | viability ([9]; 0.0032 µM): 0.919 | viability ([9]; 0.016 µM): 1.02 | viability ([9]; 0.08 µM): 0.486 | viability ([9]; 0.4 µM): 0.422 | viability ([9]; 2 µM): 0.38 | viability ([10]; 0.0032 µM): 0.872 | viability ([10]; 0.016 µM): 0.888 | viability ([10]; 0.08 µM): 0.555 | viability ([10]; 0.4 µM): 0.381 | viability ([10]; 2 µM): 0.322 | viability ([11]; 0.0032 µM): 1.17 | viability ([11]; 0.016 µM): 0.872 | viability ([11]; 0.08 µM): 0.234 | viability ([11]; 0.4 µM): 0.235 | viability ([11]; 2 µM): 0.173 | viability ([12]; 0.0032 µM): 0.896 | viability ([12]; 0.016 µM): 0.929 | viability ([12]; 0.08 µM): 0.432 | viability ([12]; 0.4 µM): 0.235 | viability ([12]; 2 µM): 0.246 | viability ([13]; 0.0032 µM): 0.987 | viability ([13]; 0.016 µM): 1.1 | viability ([13]; 0.08 µM): 0.811 | viability ([13]; 0.4 µM): 0.585 | viability ([13]; 2 µM): 0.395 | viability ([14]; 0.0032 µM): 0.967 | viability ([14]; 0.016 µM): 1.24 | viability ([14]; 0.08 µM): 1.03 | viability ([14]; 0.4 µM): 1.22 | viability ([14]; 2 µM): 0.961 | viability ([15]; 0.0032 µM): 0.9 | viability ([15]; 0.016 µM): 1.27 | viability ([15]; 0.08 µM): 0.447 | viability ([15]; 0.4 µM): 0.1 | viability ([15]; 2 µM): 0.0867

O=C(O)CSc1cc(NS(=O)(=O)c2ccc(Br)cc2)c2ccccc2c1O [UMI-77]
viability ([1]; 0.024 µM): 0.913 | viability ([1]; 0.12 µM): 0.88 | viability ([1]; 0.6 µM): 0.742 | viability ([1]; 3 µM): 0.582 | viability ([1]; 15 µM): 0.128 | viability ([2]; 0.024 µM): 0.244 | viability ([2]; 0.12 µM): 0.291 | viability ([2]; 0.6 µM): 0.291 | viability ([2]; 3 µM): 0.316 | viability ([2]; 15 µM): 0.158 | viability ([3]; 0.024 µM): 1.07 | viability ([3]; 0.12 µM): 1.04 | viability ([3]; 0.6 µM): 0.979 | viability ([3]; 3 µM): 1.01 | viability ([3]; 15 µM): 0.467 | viability ([4]; 0.024 µM): 0.894 | viability ([4]; 0.12 µM): 0.94 | viability ([4]; 0.6 µM): 0.853 | viability ([4]; 3 µM): 0.973 | viability ([4]; 15 µM): 0.891 | viability ([6]; 0.024 µM): 0.838 | viability ([6]; 0.12 µM): 0.998 | viability ([6]; 0.6 µM): 0.836 | viability ([6]; 3 µM): 0.999 | viability ([6]; 15 µM): 0.434 | viability ([7]; 0.024 µM): 1.1 | viability ([7]; 0.12 µM): 1.13 | viability ([7]; 0.6 µM): 1.04 | viability ([7]; 3 µM): 1.03 | viability ([7]; 15 µM): 0.73 | viability ([8]; 0.024 µM): 0.883 | viability ([8]; 0.12 µM): 0.921 | viability ([8]; 0.6 µM): 0.879 | viability ([8]; 3 µM): 0.85 | viability ([8]; 15 µM): 0.644 | viability ([9]; 0.024 µM): 0.956 | viability ([9]; 0.12 µM): 0.949 | viability ([9]; 0.6 µM): 0.94 | viability ([9]; 3 µM): 0.994 | viability ([9]; 15 µM): 0.777 | viability ([10]; 0.024 µM): 0.917 | viability ([10]; 0.12 µM): 0.932 | viability ([10]; 0.6 µM): 0.997 | viability ([10]; 3 µM): 0.989 | viability ([10]; 15 µM): 0.79 | viability ([11]; 0.024 µM): 0.835 | viability ([11]; 0.12 µM): 0.672 | viability ([11]; 0.6 µM): 0.737 | viability ([11]; 3 µM): 1.03 | viability ([11]; 15 µM): 0.998 | viability ([12]; 0.024 µM): 0.84 | viability ([12]; 0.12 µM): 0.875 | viability ([12]; 0.6 µM): 0.886 | viability ([12]; 3 µM): 0.878 | viability ([12]; 15 µM): 0.73 | viability ([13]; 0.024 µM): 0.997 | viability ([13]; 0.12 µM): 0.981 | viability ([13]; 0.6 µM): 0.974 | viability ([13]; 3 µM): 0.979 | viability ([13]; 15 µM): 0.748 | viability ([14]; 0.024 µM): 0.995 | viability ([14]; 0.12 µM): 1.02 | viability ([14]; 0.6 µM): 0.846 | viability ([14]; 3 µM): 0.908 | viability ([14]; 15 µM): 0.595 | viability ([15]; 0.024 µM): 1.06 | viability ([15]; 0.12 µM): 1.05 | viability ([15]; 0.6 µM): 0.974 | viability ([15]; 3 µM): 0.963 | viability ([15]; 15 µM): 0.701
